From US7537906B2, “Apoptosis inducer and method of screening for a substance inhibiting acylated homoserine lactone” (priority 2003, dated 2009)

Assays:
Type in all cases: cell-based, human
JNK = assay: MAP kinase activity by Western blot in CaCo-2 cells: phosphorylated JNK; details: 10 minutes
Procedure: A CaCo-2 carcinoma cell line of human colon cancer was purchased from American Type Culture Collection (ATCC), and cultured at 37° C. in the presence of 5% CO2 using a DMEM medium containing 10% FCS, 1% NEAA and 1% P/S (100 units/ml penicillin and 100 μg/ml streptomycin).
6×10^5 CaCo-2 cells were inoculated per dish using 6 cm dishes (NUNC), washed twice with phosphate buffered saline (PBS) (-), and then cultured in a serum-free DMEM medium containing 1% NEAA for 24 hours. Subsequently, at a final concentration of 100 μM, homoserine lactone hydrochloride and N-(3-oxododecanoyl)-L-homoserine lactone were each added, and then each solution was allowed to react for 10 minutes. […]
After reaction, the product was washed twice with cold PBS (-), and then frozen at −80° C. […] Concentration of the collected protein was measured, and then the protein equivalent to 50 μg was subjected to SDS-PAGE. […] When phosphorylated ERK, JNK, p38 and Akt were measured, blocking was carried out with 0.1% Tween 20 (TBS-T) containing 5% skim milk/Tris-buffered saline. […]
After cell culture, MAP kinase activity and Akt activity were analyzed by Western blot in a manner similar to that used in (1), except that N-(3-oxododecanoyl)-L-homoserine lactones in final concentrations of 0 μM (0.25% DMSO), 1 μM, 10 μM, 30 μM and 100 μM were each added and each solution was allowed to react for 10 minutes (FIG. 8).

caspase-9 = assay: Caspase activity by Western blot (cleaved caspase-9) in CaCo-2 cells
Procedure: The activities of caspase (caspase-3 and caspase-9) and PARP (poly-ADP ribose polymerase) were measured in a manner similar to those in Examples 1 and 2 by Western blot analysis using each of anti-activated (cleaved) caspase antibodies, that is, an anti-cleaved caspase-3 antibody, an anti-cleaved caspase-9 antibody (D330) and an anti-cleaved PARP antibody (D214).
N-(3-oxododecanoyl)-L-homoserine lactones with final concentrations of 30 μM and 100 μM were each added to cultured CaCo-2 cells. Caspase-3, caspase-9 and PARP activities were analyzed over time by Western blot at 0 hours, 1 hour, 2 hours, 4 hours, 6 hours, 8 hours and 10 hours after culture. […] Whereas at 30 μM, activated caspase-3 began to be detected 1 hour after stimulation and the activity lasted until 4 hours after stimulation, at 100 μM the activity peaked at 6 hours and lasted until 10 hours after stimulation. Cleaved caspase-9 and cleaved PARP were detected by reprobing each membrane.
Next, 3 hours of reaction with N-(3-oxododecanoyl)-L-homoserine lactone was carried out at concentrations of 0, 1, 10, 30, and 100 μM, and then caspase and PARP activities were measured.

CaCo-2 cells [1] = assay: Evaluation of viability by Trypan blue staining; details: 12 hours of culture
Procedure: 2×10^5 CaCo-2 cells were inoculated in a 3.5 cm dish (NUNC), washed twice with PBS (-), and then cultured in a serum-free DMEM medium containing 1% NEAA for 24 hours. Various agents [N-(3-oxododecanoyl)-L-homoserine lactones with final concentrations between 1 and 100 μM] were added, followed by 12 hours of culture. 0.25% DMSO was used as a control. Subsequently, the supernatant and the cells removed from the dish using trypsin-EDTA (TE) were centrifuged at 800 rpm at room temperature for 5 minutes. The supernatant was removed, and then dilution was carried out with 200 μl of DMEM. 50 μl of the dilution was taken in an Eppen tube, an equivalent volume of Trypan blue stain was added, and then the cell count was measured using a hemacytometer. At this time, the sum of the dead cell count and the viable cell count to be measured was determined to be 200 cells or more.

CaCo-2 cells [2] = assay: Evaluation of apoptosis by DNA fragmentation (DNA ladder); details: CaCo-2 cells cultured for 12 hours, 0-100 μM
Procedure: 5×10^6 CaCo-2 cells were inoculated per 15 cm dish (NUNC), washed twice with PBS (-), and then cultured in a serum-free DMEM medium containing 1% NEAA for 24 hours. N-(3-oxododecanoyl)-L-homoserine lactone was added at each concentration (1 μM to 100 μM), followed by 12 hours of culture. Subsequently, the supernatant and the cells removed from the dish using TE were centrifuged at room temperature at 800 rpm for 5 minutes, and the supernatant was removed. The cells were suspended with 300 μl of PBS (-), and then the suspension was centrifuged again at 4° C. at 2500 rpm for 5 minutes, and the supernatant was removed. The cells were lysed by the addition of 300 μl of a cytolysis buffer [10 mM Tris-HCl (pH 7.4), 10 mM EDTA (pH 8.0), 0.5% Triton X-100], and then allowed to stand on ice for 10 minutes, thereby extracting DNA fragments. The extract was centrifuged at 4° C. at 14000 rpm for 10 minutes. RNase A was added to the obtained supernatant, and then incubation was carried out at 37° C. for 1 hour. Proteinase K was further added, and then incubation was carried out at 50° C. for 30 minutes. The extract of the DNA fragments was concentrated by ethanol precipitation, and then electrophoresis was carried out using 2% agarose gel. After the gel was stained with ethidium bromide, DNA fragmentation was detected under a UV transilluminator.

SMILES: CCCCCCCCCC(=O)CC(=O)N[C@H]1CCOC1=O [N-(3-oxododecanoyl)-L-homoserine lactone]
- JNK activity, concentration dependence (JNK; 0-100 μM): no concentration-dependent significant difference
- activation of JNK (JNK; 100 μM): promoted
- caspase-9 activity over time (caspase-9; 30 μM): strong at 1, 2 and 4 hours
- weak caspase-9 activity lasted until (after stimulation) (caspase-9; 30 μM): 8 h
- strong caspase-9 activity lasted until (after stimulation) (caspase-9; 100 μM): 8 h
- concentration at which cleaved caspase (caspase-9) was detected (caspase-9; 3 hours of reaction, 0, 1, 10, 30 and 100 μM): ≥ 30 µM
- viability (CaCo-2 cells [1]; 1 μM): 94%
- viability (CaCo-2 cells [1]; 10 μM): 90%
- viability (CaCo-2 cells [1]; 30 μM): 55%
- viability (CaCo-2 cells [1]; 100 μM): 51%
- concentration at which viability was significantly decreased (CaCo-2 cells [1]): ≥ 30 µM
- concentration at which the DNA ladder was observed (CaCo-2 cells [2]): ≥ 30 µM
